# How the values were obtained:
# RARγ = molecular target: T1, RARγ (Homo sapiens, UniProt P13631); assay: PGA-RAR antagonist assay (glucocorticoid-retinoid chimeric receptors); assay type: cell-based; set-up: RAR IC50 (nM) γ; other: in the presence of 1 nM all-trans retinoic acid; fused on or other part: Glucocorticoid receptor DNA-recognition part in place of RAR's own; settings: for IC50: in the presence of 1 nM all-trans retinoic acid, read-out: RAR IC50 (nM) γ; for RAR γ (% Inhibition): percentage of the maximum inhibition of the activity induced by 1 nM all-trans retinoic acid
# T1 sequence (P13631 185-419 limits assumed): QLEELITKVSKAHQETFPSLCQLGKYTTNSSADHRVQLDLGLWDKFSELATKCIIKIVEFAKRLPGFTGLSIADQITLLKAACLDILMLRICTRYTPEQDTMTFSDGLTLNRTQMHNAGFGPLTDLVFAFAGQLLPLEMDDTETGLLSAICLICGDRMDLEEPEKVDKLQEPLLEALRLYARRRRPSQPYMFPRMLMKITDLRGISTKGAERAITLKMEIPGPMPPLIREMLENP
# Protocol: The results obtained in this assay are expressed in EC50 numbers, as they are also in the chimeric receptor transactivation assay. The other functional assay running in the presence of 1 nM all-trans retinoic acid, namely PGA-RAR antagonist assay (utilizing glucocorticoid-retinoid chimeric receptors), is a modified chimeric receptor transactivation assay which tests the compounds for their antagonist-like activity in the RARα, RARγ and RARγ receptor subtypes.
# RARα [1] = molecular target: T2, RARα (Homo sapiens, UniProt P10276); assay: chimeric receptor transactivation assay (agonist-like activity); assay type: cell-based; set-up: RAR EC50 (nM) (% Efficiency) α; settings: read-out: RAR EC50 (nM) (% Efficiency) α
# T2 sequence (P10276 183-417 limits assumed): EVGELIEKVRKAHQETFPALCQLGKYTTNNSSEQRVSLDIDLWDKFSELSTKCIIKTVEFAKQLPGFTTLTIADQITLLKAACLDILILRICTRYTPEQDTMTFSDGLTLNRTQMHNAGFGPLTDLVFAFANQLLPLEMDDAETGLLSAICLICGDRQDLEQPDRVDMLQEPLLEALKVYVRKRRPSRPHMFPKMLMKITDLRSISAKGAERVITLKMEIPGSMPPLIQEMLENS
# Protocol: Specifically, one assay in which the compounds were tested is a chimeric receptor transactivation assay which tests for agonist-like activity in the RARα, RARγ and RARγ receptor subtypes, and which is based on work published by Feigner P. L. and Holm M (1989) Focus, 112 is described in detail in U.S. Pat. No. 5,455,265. The specification of U.S. Pat. No. 5,455,265 is hereby expressly incorporated by reference.
# (§1) A holoreceptor transactivation assay and a ligand binding assay which measure the antagonist/agonist like activity of the compounds of the invention, or their ability to bind to the several retinoid receptor subtypes, respectively, are described in published PCT Application No. WO WO93/11755 (particularly on pages 30-33 and 37-41) published on Jun. 24, 1993, the specification of which is also incorporated herein by reference. A detailed experimental procedure for holoreceptor transactivations has been described by Heyman et al. Cell 68, 397-406, (1992); Allegretto et al. J. Biol. Chem. 268, 26625-26633, and Mangelsdorf et al. The Retinoids: Biology, Chemistry and Medicine, pp 319-349, Raven Press Ltd., New York, which are expressly incorporated herein by reference. The results obtained in this assay are expressed in EC50 numbers, as they are also in the chimeric receptor transactivation assay. The other functional assay running in the presence of 1 nM all-trans retinoic acid, namely PGA-RAR antagonist assay (utilizing glucocorticoid-retinoid chimeric receptors), is a modified chimeric receptor transactivation assay which tests the compounds for their antagonist-like activity in the RARα, RARγ and RARγ receptor subtypes. The results from this assay are normally expressed in IC50 numbers (See Teng et al. J. Med. Chem. 40, 2445-2452, (1997) incorporated herein by reference.)
# RARα [2] = molecular target: T3, RARα (Homo sapiens, UniProt P10276); assay: ligand binding assay; settings: expressed in Ki numbers, read-out: RAR Binding α
# T3 sequence (P10276 1-462): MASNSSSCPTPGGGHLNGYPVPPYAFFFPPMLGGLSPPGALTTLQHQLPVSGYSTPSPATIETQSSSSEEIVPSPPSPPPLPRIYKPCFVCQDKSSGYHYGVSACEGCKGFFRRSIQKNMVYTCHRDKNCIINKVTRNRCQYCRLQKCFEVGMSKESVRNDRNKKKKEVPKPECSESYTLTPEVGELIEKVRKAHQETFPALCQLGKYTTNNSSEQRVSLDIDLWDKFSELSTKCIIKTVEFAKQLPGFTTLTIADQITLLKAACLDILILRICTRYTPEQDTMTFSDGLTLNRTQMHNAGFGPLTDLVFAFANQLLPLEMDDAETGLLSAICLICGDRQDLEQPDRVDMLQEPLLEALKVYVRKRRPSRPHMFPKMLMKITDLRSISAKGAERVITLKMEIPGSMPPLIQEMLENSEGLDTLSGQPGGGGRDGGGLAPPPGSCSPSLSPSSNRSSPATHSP
# Description: as §1
# (§2) The results of the ligand binding assay are expressed in Ki numbers. (See Cheng et al. Biochemical Pharmacology Vol. 22 pp 3099-3108, expressly incorporated herein by reference.)
# RARβ = molecular target: T4, RARβ (Homo sapiens, UniProt P10826); assay: ligand binding assay; settings: expressed in Ki numbers, read-out: RAR Binding β
# T4 sequence (P10826 1-455): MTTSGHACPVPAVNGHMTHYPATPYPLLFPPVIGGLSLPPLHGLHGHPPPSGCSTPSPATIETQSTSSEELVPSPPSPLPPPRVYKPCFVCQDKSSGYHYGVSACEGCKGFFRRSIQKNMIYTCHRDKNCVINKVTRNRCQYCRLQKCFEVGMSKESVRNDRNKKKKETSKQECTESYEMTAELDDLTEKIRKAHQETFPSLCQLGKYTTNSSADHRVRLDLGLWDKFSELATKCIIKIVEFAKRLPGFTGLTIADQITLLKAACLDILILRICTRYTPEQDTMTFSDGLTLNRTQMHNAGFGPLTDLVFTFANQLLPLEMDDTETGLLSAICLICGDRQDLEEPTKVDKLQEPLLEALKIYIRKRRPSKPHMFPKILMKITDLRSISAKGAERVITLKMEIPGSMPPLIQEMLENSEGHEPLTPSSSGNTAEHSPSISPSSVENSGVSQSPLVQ
# Description: as §1, §2
Compound,IC50 (RARγ),RAR γ (% Inhibition) (RARγ),EC50 (RARα [1]),Ki (RARα [2]),Ki (RARβ)
"Cc1ccc(C2=CC(C)(C)c3cc(C(/C=C/c4ccc(C(=O)O)cc4F)=N/O)ccc32)cc1 [Compound 18a, E-4-[3-(3,3-Dimethyl-1-p-tolyl-3H-inden-5-yl)-3-hydroxyimino-propenyl]-3-fluoro-benzoic acid]",52 nM,70%,> 10000 nM,12 µM,10 µM
"Cc1ccc(C2=CCC(C)(C)c3cc(C(/C=C/c4ccc(C(=O)O)cc4)=N\O)ccc32)cc1 [Compound 7b, Z-4-[3-(8,8-dimethyl-5-p-tolyl-7,8-dihydro-naphthalen-2-yl)-3-hydroxyimino-propenyl]-benzoic acid]",25 nM,88%,> 10000 nM,5.2 µM,1.9 µM
Cc1ccc(C2=CC(C)(C)c3cc(C(/C=C/c4ccc(C(=O)O)cc4)=N/O)ccc32)cc1 [Compound 16a],27 nM,78%,> 10000 nM,9 µM,10 µM
"Cc1ccc(C2=CCC(C)(C)c3cc(C(/C=C/c4ccc(C(=O)O)cc4)=N/O)ccc32)cc1 [Compound 7a, E-4-[3-(8,8-Dimethyl-5-p-tolyl-7,8-dihydro-naphthalen-2-yl)-3-hydroxyimino-propenyl]-benzoic acid]",0.6 nM,95%,> 10000 nM,3 µM,5 µM
"Cc1ccc(C2=CCC(C)(C)c3cc(C(/C=C/c4ccc(C(=O)O)cc4F)=N/O)ccc32)cc1 [Compound 9a, E-4-[3-(8,8-Dimethyl-5-p-tolyl-7,8-dihydro-naphthalen-2-yl)-3-hydroxyimino-propenyl]-3-fluoro-benzoic acid]",5 nM,90%,> 10000 nM,13 µM,15 µM
"Cc1ccc(C2=CCC(C)(C)c3cc(C(/C=C/c4ccc(C(=O)O)cc4)=NO)ccc32)cc1 (racemic) [Compound 7c, 4-[3-(8,8-Dimethyl-5-p-tolyl-7,8-dihydro-naphthalen-2-yl)-3-hydroxyimino-propenyl]-benzoic acid]",2 nM,108%,> 10000 nM,2.9 µM,1.3 µM
"Cc1ccc(C2=CC(C)(C)c3cc(C(/C=C/c4ccc(C(=O)O)cc4F)=N\O)ccc32)cc1 [Compound 18b, Z-4-[3-(3,3-Dimethyl-1-p-tolyl-3H-inden-5-yl)-3-hydroxyimino-propenyl]-3-fluoro-benzoic acid]",226 nM,58%,> 10000 nM,23 µM,10 µM
"Cc1ccc(C2=CCC(C)(C)c3cc(C(/C=C/c4ccc(C(=O)O)cc4F)=N\O)ccc32)cc1 [Compound 9b, Z-4-[3-(8,8-Dimethyl-5-p-tolyl-7,8-dihydro-naphthalen-2-yl)-3-hydroxyimino-propenyl]-3-fluoro-benzoic acid]",13 nM,78%,> 10000 nM,13 µM,10 µM
Cc1ccc(C2=CC(C)(C)c3cc(C(/C=C/c4ccc(C(=O)O)cc4)=N\O)ccc32)cc1 [Compound 16b],67 nM,54%,> 10000 nM,7 µM,10 µM

# From patent US7432388B2 (Allergan, Inc., priority 2003, dated 2008)
